Data set [1] in a line: In vivo pharmacokinetics of probe drugs in WT and ERL (POR-deleted) mice, blood LC-MS/MS. Particulars: for Cl / Cmax: mean ± S.D., n=3; for Cmax: po. Here is the method: WT and ERL mice (n = 3) were pre-treated with corn oil or 3MC (4 or 40 mg/kg). A single dose of midazolam (5 mg/kg p.o.), or nelfinavir (50 mg/kg p.o.) or paroxetine (10 mg/kg p.o.) was administered on day 14 after 3MC treatment. Whole blood (10 μl) was taken from the tail vein at timed intervals after drug administration and transferred into a tube containing heparin (10 μl, 15 IU/ml).
For midazolam analysis, internal standard solution (10 μl; 500 ng of caffeine and 500 ng of resorpine) was added and proteins were precipitated using methanol (75 μl), followed by 8% sulfosalicylic acid (55 μl). Samples were mixed for 1 min and centrifuged at 13 000 g for 5 min. The supernatant was analysed for midazolam and the two internal standards by LC–MS/MS, as described previously. Standard curves were constructed by spiking blank blood samples with known amounts of midazolam. Extraction and protein precipitation were carried out as outlined above for the test samples.
For nelfinavir and paroxetine analysis, mouse blood extraction was performed by a method based on protein precipitation using acetonitrile containing sulfadimethoxine (100 ng/ml) as internal standard. Samples were vortex mixed for 1 min followed by centrifugation at 2800 g for 10 min. Supernatants were analysed by UPLC–MS/MS using a Xevo TQs mass spectrometer (Waters). Nelfinavir, paroxetine and sulfadimethoxine were separated on an Acquity UPLC BEH C18 column (1.7 μm particle size, 50 × 2.1 mm i.d.) by gradient elution with acetonitrile and water at a flow rate 0.6 ml/min. The cycle time of each analysis was 3 min. Matrix effects were assessed by dilution. Quantification of the analytes was performed in electrospray positive ionization mode using multiple reaction monitoring.
Pharmacokinetic parameters were calculated using WinNonLin software, version 3.1. A simple non-compartmental model was used to calculate the area under the curve (AUC), terminal half-life, Cmax and clearance. Statistical analysis of pharmacokinetic data was carried out using Student’s t tests.

Data set [2] concerns PhIP-DNA adducts in the colon. Further details: method as in PMID 21940903. The conditions noted are these: RCN mice dosed orally with PhIP 2 weeks after 3MC, compared with PhIP alone; cited from earlier work.
Data set [3] can be described thus: Tolerability and gross liver phenotype of ERL mice after inducer dosing. It is filed as in vivo, mouse. As to the method: (§1) Single doses of βNF (80 mg/kg body weight as a suspension in corn oil) were administered intraperitoneally (i.p.). Doses of 3MC between 0.5 and 40 mg/kg body weight (single injections) were administered i.p. in corn oil; in some experiments, three daily doses were administered, as detailed in the Figure legends. Mice were killed at the same time of day by a rising concentration of CO2 9 or 14 days after dosing and the following tissues removed and snap-frozen in liquid nitrogen: liver, lung, kidney, small intestine, large intestine, spleen and skin. Samples were then stored at − 80°C until processing for sub-cellular fractions.
The effects of a single dose of the polycyclic aromatic hydrocarbon AhR ligand βNF (80 mg/kg i.p.) on ERL mice were investigated in initial range-finding experiments (Figure 2A). Liver and small intestine tissues were harvested 9 or 14 days after dosing. […] On post mortem examination, βNF treated ERL mice had pale, mottled, enlarged livers which weighed approximately 60% more than those of either corn oil treated ERL mice or βNF treated WT animals. This phenotype is characteristic of POR deletion and is also observed in HRN and RCN animals. The effect on POR expression in the ERL liver and small intestine of a single dose of βNF (80 mg/kg i.p.) was similar to that observed in RCN mice following four daily doses (compare Figure 2A with Figure 1 of Finn et al.).
Both ERL and WT animals lost weight in response to this treatment.

Data set [4] relates to POR. The data set can be described thus: POR activity in microsomes of treated ERL mice, cytochrome c reduction. The format is in vivo, mouse. As to the method: (§2) The low levels of cytochrome c reduction detected in the small intestine were further decreased (by 78%) in ERL animals treated with 40 mg/kg 3MC (36.2 ± 15.6 compared with 8.2 ± 3.3 nmol cytochrome c reduced/min/mg respectively, n = 3, mean + S.D., P < 0.01). No P450 activity was detected in small intestinal microsomes from either WT or ERL animals.

Data set [5] has as its system P450. The data set can be described thus: P450-mediated substrate turnover in liver of treated ERL mice. Particulars: 3MC 40 mg/kg, n=6. It is filed as in vivo, mouse. Here is the method:
as §2

The subject of data set [6] is POR. The experiment in a line: POR expression by Western blot/densitometry in tissues of ERL mice after Cyp1a1 inducer. The format is in vivo, mouse. Here is the method:
as §1
Microsomal fractions were prepared as described previously and stored at − 70°C until required. Microsomal protein concentrations were determined using the Bio-Rad Protein Assay Reagent (Bio-Rad Laboratories) and Western blot analysis was preformed as described previously using polyclonal antisera to rat P450s and POR [27, 28]. Immunoreactive proteins were detected using horseradish peroxidase (HRP)-conjugated polyclonal goat anti-rabbit, anti-mouse or anti-sheep immunoglobulin secondary antibodies, as appropriate (Dako). Bands were visualized using Immobilon™ chemiluminescent HRP-conjugated substrate (Millipore) and a FUJIFILM LAS-3000 mini imaging system (Fujifilm UK.). Densitometric analysis was performed using Multi Gauge V2.2 software (Fujifilm UK).
A general note: In western blotting, separated proteins are transferred to a membrane and probed.

Where [7] appears, read: liver and gut POR deletion compared with WT/control.
Setting [8] is: liver only POR deletion relative to control.

SMILES strings stand for the structures. Bounds are passed on as bounds.

In data set [1] (ERL (Por^lox/lox/Cre^Cyp1a1-KI), control: WT (Por^lox/lox), mouse, in vivo), `Fc1ccc([C@@H]2CCNC[C@H]2COc2ccc3c(c2)OCO3)cc1` [Paroxetine, paroxetine] displayed an increase in half-life of 3.5 fold. In addition, in data set [1] (mouse, in vivo), the “change in Cmax” value was “essentially unchanged”, the decrease in clearance is on record as ~ 3 fold and the “increase in AUC” value is 1.5 fold.
For `Cn1c(N)nc2ncc(-c3ccccc3)cc21` [PhIP, 2-amino-1-methyl-6-phenylimidazo[4,5-b]pyridine], the “reduction of adduct formation in the colon” value in data set [2] is 50%.
As to `O=c1cc(-c2ccccc2)oc2ccc3ccccc3c12` [βNF, β-naphthoflavone], in data set [3] (single dose βNF 80 mg/kg i.p.), the “body weight loss over the course of the treatment” value was 2 to 4 g. The “increase in liver weight vs corn oil treated ERL or βNF treated WT” value in data set [3] (single dose βNF 80 mg/kg i.p., 9 or 14 days) is reported as “approximately 60%”.
What is called Cmax is the highest concentration seen after dosing. In the case of `Cc1ncc2n1-c1ccc(Cl)cc1C(c1ccccc1F)=NC2` [Midazolam, midazolam], the Cl was 113 ± 35 mL/min/kg in data set [1] (Control (WT + corn oil), single p.o. dose nelfinavir 50 mg/kg, paroxetine 10 mg/kg or midazolam 5 mg/kg); 4.3 ± 0.9^••◦ ml/min/kg in data set [1] (Liver and gut null (ERL + 3MC 40 mg/kg, day 14), single p.o. dose nelfinavir 50, paroxetine 10 or midazolam 5 mg/kg); 13 ± 5 mL/min/kg in data set [1] (Liver null (ERL + 3MC 4 mg/kg, day 14), single p.o. dose nelfinavir 50, paroxetine 10 or midazolam 5 mg/kg). The peak concentration (Cmax) in data set [1] (ERL (Por^lox/lox/Cre^Cyp1a1-KI), mouse, in vivo, Liver and gut null (ERL + 3MC 40 mg/kg, day 14), single p.o. dose nelfinavir 50, paroxetine 10 or midazolam 5 mg/kg) stood at 4460 ± 1530 ng/mL; in data set [1] (ERL (Por^lox/lox/Cre^Cyp1a1-KI), mouse, in vivo, Liver null (ERL + 3MC 4 mg/kg, day 14), single p.o. dose nelfinavir 50, paroxetine 10 or midazolam 5 mg/kg) it was 1850 ± 340 ng/mL; in data set [1] (WT (Por^lox/lox), mouse, in vivo, Control (WT + corn oil), single p.o. dose nelfinavir 50 mg/kg, paroxetine 10 mg/kg or midazolam 5 mg/kg), 610 ± 110 ng/mL. Moreover, the “increase in AUC” value in data set [1] (setting [7]) is listed as 22.9 fold; in data set [1] (setting [8]), 9 fold. Further, the “increase in Cmax” value in data set [1] (setting [7]) came out at 7.3 fold; in data set [1] (setting [8]), 3 fold. This molecule also had an increase in half-life in data set [1] (setting [7]) of 1.6 fold. Also, the decrease in clearance in data set [1] (liver and gut POR deletion relative to control) turned out to be 26.3 fold; in data set [1] (setting [8]) it was 9 fold.
Regarding `Cc1ccc2cc3c(ccc4ccccc43)c3c2c1CC3` [3MC, 3-methylcholanthrene], in data set [3] (single dose 3MC 40 mg/kg i.p., post mortem), the “increase in liver weight” value is 60–90%. Besides, in data set [4] (ERL animals treated with 40 mg/kg 3MC), the “decrease of cytochrome c reduction in small intestine” value is recorded as 78%. In data set [4] (livers from ERL mice 14 days after 3MC 40 mg/kg), the “hepatic POR activity as % of WT” value is listed as “approximately 4%”. In data set [4] (livers from ERL mice 14 days after 3MC 40 mg/kg, n=3, mean ± S.D., WT 60.3 ± 20.8), the “hepatic POR activity (cytochrome c reduction)” value is 2.2 ± 1.9 nmol cytochrome c reduced/min/mg. In addition, in data set [4] (small intestine of ERL animals treated with 40 mg/kg 3MC, n=3, mean ± S.D., comparator 36.2 ± 15.6), the “cytochrome c reduction in small intestine” value is given as 8.2 ± 3.3 nmol cytochrome c reduced/min/mg. Moreover, in data set [5], the “reduction in P450-mediated turnover of 7-benzyloxy-4-(trifluoromethyl)-coumarin” value came to 95% and the “reduction in P450-mediated turnover of methoxyresorufin” value came to 70%. Further, in data set [6] (ERL mice, 3MC 40 mg/kg i.p., results not shown), the “residual hepatic POR expression (densitometric quantification)” value is given as under 4%. The “single dose required for knockdown in both liver and small intestine” value in data set [6] (ERL mice, i.p.) lay within 20 to 40 mg/kg. The “single dose for knockdown of hepatic POR expression” value in data set [6] (ERL mice, i.p., liver only) is on record as 4 mg/kg. Moreover, the “POR knockdown in large intestine” value in data set [6] (ERL mice, three daily doses of 3MC 40 mg/kg/day i.p., harvested 14 days after initial dose) stood at 50%. In data set [6] (ERL vs RCN animals (ref 20)), the “dose needed to knockdown POR in liver of ERL mice, lower than in RCN animals” value stood at 10 fold.

The values above are taken from paper PMC6949133, “Application of a novel regulatable Cre recombinase system to define the role of liver and gut metabolism in drug oral bioavailability” (The Biochemical journal, 2015).
